Test results taken from patent US7666898B2, “Multivalent indole compounds and use thereof as phospholipase-A2 inhibitors” (Ilypsa, Inc., priority 2005, dated 2010).
Where two headings read alike, the source gives them in different places.

Key:
[1] = target: Porcine group 1 B phospholipase A2 (pps PLA2) (Sus scrofa, UniProt P00592); assay: Fluorimetric PLA2 inhibition assay, porcine (Example 8)
Source text: (§1) In this example, a fluorimetric assay procedure was used to evaluate the indole and indole-related compounds of the invention as inhibitors of group 1B phospholipase A2 (PLA2) from human, mouse and porcine.
(§2) In general, this assay used a phosphatidylmethanol substrate with a pyrene fluorophore on the terminal end of the sn-2 fatty acyl chain. Without being bound by theory, close proximity of the pyrenes from neighboring phospholipids in a phospholipid vesicle caused the spectral properties to change relative to that of monomeric pyrene. Bovine serum albumin was present in the aqueous phase and captured the pyrene fatty acid when it is liberated from the glycerol backbone owing to the PLA2-catalyzed reaction. […] The effect of a given inhibitor and inhibitor concentration on human, mouse and porcine phospholipase was determined.
The following reagents and equipments were obtained from commercial vendors: • 1. Porcine group 1 B phospholipase A2 • 2. 1-hexadecanoyl-2-(1-pyrenedecanoyl)-sn-glycero-3-phosphomethanol (PPyrPM) • 3. Bovine serum albumin (BSA, fatty acid free) • 4. 2-Amino-2-(hydroxymethyl)-1,3-propanediol, hydrochloride (Tris-HCl) • 5. […]
(§3) The following procedure was performed to evaluate the inhibitory potency of the evaluated compounds. • 1. […]
Evaluated compounds were tested in duplicate and their values were averaged to plot the inhibition curve and calculate the IC50. […]

[2] = target: T1, mouse group 1B PLA2 (mps PLA2) (Mus musculus, UniProt Q9Z0Y2); assay: Fluorimetric PLA2 inhibition assay, mouse (Example 8); type: biochemical
T1 construct: made in house; host or cells: E. coli
T1 sequence (Q9Z0Y2 23-146): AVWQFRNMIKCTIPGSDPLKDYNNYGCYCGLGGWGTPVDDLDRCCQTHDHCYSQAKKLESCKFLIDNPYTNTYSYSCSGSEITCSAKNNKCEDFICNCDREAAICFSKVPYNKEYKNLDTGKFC
Source text: as §1, §2
(§4) Recombinant human and mouse group 1B PLA2 were cloned and expressed in E. coli as insoluble inclusion bodies. The inclusion bodies were isolated and purified by sonicating cell pellet in lysis buffer (50 mM Tris-HCl pH 7.0, 250 mM NaCl, 0.5% Triton 100), centrifugation at 12,000×g, and washing three times in washing buffer (20 mM Tris-HCl pH 7.0, 250 mM NaCl, 0.5% Triton 100). Then the inclusion bodies were dissolved in dissolving buffer (50 mM Tris-HCl pH 7.0, 250 mM NaCl, 6 M Guanidine-HCl, 1 mM DTT) and dialyzed four times against 10 volumes of refolding buffer (20 mM Tris-HCl pH 7.0, 250 mM NaCl, 0.5M Guanidine-HCl, 5% (w/w) Glycerol, 2 mM reduced glutathione and 0.4 mM oxidized glutathione) at 4° C. The correctly refolded proteins were concentrated using Amicon Stirred cell under nitrogen pressure (<70 psi) and dialyzed against 10 volumes of 50 mM Tris-HCl pH 7.0, 250 mM NaCl and 5% (w/w) glycerol. Human and mouse group 1B PLA2 were further purified by High S ion exchange and gel filtration columns.
(§5) The following reagents were prepared: • 1. PPyrPM stock solution (1 mg/ml) in toluene:isopropanol (1:1) • 2. […]
as §3

[3] = target: T2, human group 1B PLA2 (hps PLA2) (Homo sapiens, UniProt P04054); assay: Fluorimetric PLA2 inhibition assay, human (Example 8); type: biochemical
T2 construct: made in house; host or cells: E. coli
T2 sequence (P04054 23-148): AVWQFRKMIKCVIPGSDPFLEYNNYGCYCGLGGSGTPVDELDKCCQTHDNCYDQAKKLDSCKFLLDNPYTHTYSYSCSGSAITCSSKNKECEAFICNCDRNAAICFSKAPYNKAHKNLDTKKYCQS
Source text: as §1, §2, §4, §5, §3

[4] = Bioavailability study of Compound 5-24 (Example 9); type: in vivo, male CD-1 Mus Musculus mice; conditions: oral ˜30 mg/kg vs IV ˜3 mg/kg, mice
Protocol: Bioavailability was determined for Compound 5-24 (ILY-V-24) as follows. Generally, the bioavailability was calculated by comparing a timecourse of the concentration of the test compound in the serum of mice after an intra-venous (IV) dosing, versus the timecourse of the concertration following an oral dosing of the test compound. The IV dose was ˜3 mg/kg, the oral dose was ˜30 mg/kg.
Oral Formulation. The oral formulation was prepared as follows. To sterile flask, 90 ml of sterile Milli-Q water was added. 9 ml of PEG-400 was added (final concentration of 9%). 50 ul of Tween-80 was added (final concentration of 0.05%). 0.9 g of CMC was weighed and added (final concentration of 0.9% w/v). […]
Study Design. […] On study day 0, all the animals were weighed, dosages were calculated and the animals were dosed by oral route (PO) or (IV) as outlined below in Table 7. […]
Calculations. Bioavailabilty was calculated as follows. Individual doses were calculated based on an average of body weights taken on the day of dosing. Serum concentrations of test compound, as well as the actual concentration of dosing solutions, were measured using 2-dimensional Mass Spectrophotometry after Liquid Chromatography (LC MS/MS). […]

[5] = Stability at low pH; type: physicochemical
[6] = target: human PLA2 IB enzyme (Homo sapiens, UniProt P04054); conditions: pyrene substrate release from vesicles (Singer, Ghomashchi et al. 2002); read-out: IC50 versus the human PLA2 IB enzyme; cited from earlier work
Sequence of human PLA2 IB enzyme (P04054 23-148): as above

[7] = target: mouse PLA2 IB enzyme (Mus musculus, UniProt Q9Z0Y2); conditions: pyrene substrate release from vesicles (Singer, Ghomashchi et al. 2002); read-out: IC50 versus the mouse PLA2 IB enzyme; cited from earlier work
Sequence of mouse PLA2 IB enzyme (Q9Z0Y2 23-146): as the sequence (Q9Z0Y2 23-146) above

[8] = system: Caco-2 cells; assay: In-vitro Caco-2 permeability study (Example 6B); conditions: Caco-2 monolayers, apical to basolateral
Protocol: (§6) Briefly, the human colon adenocarcinoma cell line, Caco-2, was used to model intestinal drug absorption.
(§7) In order to determine the compound permeability, Caco-2 cells (ATCC) were seeded into 24-well transwells (Costar) at a density of 6×10^4 cells/cm^2. Monolayers were grown and differentiated in MEM (Mediatech) supplemented with 20% FBS, 100 U/ml penicillin, and 100 ug/ml streptomycin at 37° C., 95% humidity, 95% air, and 5% CO2. The culture medium was refreshed every 48 hours. After 21 days, the cells were washed in transport buffer made up of HBSS with HEPES and the monolayer integrity was evaluated by measuring the trans-epithelial electrical resistance (TEER) of each well. […]
(§8) 150 ul samples were collected for LC/MS analysis from the basolateral well at 15 min, 30 min, 45 min, 1 hr, 3 hr, and 6 hr time points; replacing the volume with pre-warmed transport buffer after each sampling. The apparent permeabilities in cm/s were calculated based on the equation: Papp=(dQ/dt)×(1/C0)×(1/A) where dQ/dt is the permeability rate corrected for the sampling volumes over time, C0 is the initial concentration, and A is the surface area of the monolayer (0.32 cm^2). At the end of the experiment, TEER measurements were retaken and wells with readings below 350 ohm-cm^2 indicated diminished monolayer integrity such that the data from these wells were not valid for analysis.

[9] = Pharmokinetic study of ILY-4001 (Example 6C); type: in vivo, mice; conditions: 30 mg/kg oral
Protocol: Bioavailability was calculated as a ratio of AUC-oral/AUC-intravenous (IV). To determine this ratio, a first set of subject animals were given a measured intravenous (IV) dose of ILY-4001, followed by a determination of ILY-4001 levels in the blood at various time points after administration (e.g., 5 minutes through 24 hours). Another second set of animals was similarly dosed using oral administration, with blood levels of ILY-4001 determined at various time points after administration (e.g., 30 minutes through 24 hours). The level of ILY-4001 in systemic circulation were determined by generally accepted methods (for example as described in Evans, G., A Handbook of Bioanalysis and Drug Metabolism. Boca Raton, CRC Press (2004)). Specifically, […]/mass spectrometry/mass spectrometry (LC/MS/MS) analytical methods were used to quantitate plasma concentrations of ILY-4001 after oral and intravenous administration. Pharmacokinetic parameters that were measured include Cmax, AUC, tmax, t1/2, and F (bioavailability).
In this procedure, ILY-4001 was dosed at 3 mg/kg IV and 30 mg/kg oral. […] This indicated about a 72% level of non-absorption of ILY-4001 from the GI tract into systemic circulation.

[10] = system: C57BL/6 wild-type mice on high fat/high sucrose diabetogenic diet; assay: In-vivo evaluation in mice on high fat/high sucrose diabetogenic diet (Example 5); parameters: species or system mouse; conditions: for fasting glucose levels: low dose 25 mg/kg/day
Protocol: ILY-4001 (FIG. 2) was evaluated as a PLA2 IB inhibitor in a set of experiments using wild-type mice and genetically deficient PLA2 (−/−) mice (also referred to herein as PLA2 knock-out (KO) mice). In these experiments, wild-type and PLA2 (−/−) mice were maintained on a high fat/high sucrose diet, details of which are described below.
Briefly, four groups were set up, each having six mice. Three of the groups included six wild-type PLA2 (+/+) mice in each group (eighteen mice total), and one of the groups included six genetically deficient PLA2 (−/−) mice. One of the wild-type groups was used as a wild-type control group, and was not treated with ILY-4001. The other two wild-type groups were treated with ILY-4001—one group at a lower dose (indicated as “L” in Table 1) of 25 mg/kg/day, and the other at a higher dose (indicated as “H” in Table 1) of 90 mg/kg/day. The group comprising the PLA2 (−/−) mice was used as a positive control group.
The experimental protocol used in this study was as follows. The four groups of mice, including wild type and isogenic PLA2 (−/−) C57BL/J mice were acclimated for three days on a low fat/low carbohydrate diet. After the three day acclimation phase, the animals were fasted overnight and serum samples taken to establish baseline plasma cholesterol, triglyceride, and glucose levels, along with baseline body weight. The mice in each of the treatment groups were then fed a high fat/high sucrose diabetogenic diet (Research Diets D12331). 1000 g of the high fat/high sucrose D12331 diet was composed of casein (228 g), DL-methionine (2 g), maltodextrin 10 (170 g), sucrose (175 g), soybean oil (25 g), hydrogenated coconut oil (333.5 g), mineral mix S10001 (40 g), sodium bicarbonate (10.5 g), potassium citrate (4 g), vitamin mix V10001 (10 g), and choline bitartrate (2 g). This diet was supplemented with ILY-4001 treatments such that the average daily dose of the compound ingested by a 25 g mouse was: 0 mg/kg/day (wild-type control group and PLA2 (−/−) control group); 25 mg/kg/day (low-dose wild-type treatment group), or 90 mg/kg/day (high-dose wild-type treatment group). The animals were maintained on the high fat/high sucrose diet, with the designated ILY-4001 supplementation, for a period of ten weeks.
Body weight measurements were taken for all animals in all treatment and control groups at the beginning of the treatment period and at 4 weeks and 10 weeks after initiation of the study. (See Example 5A). Blood draws were also taken at the beginning of the treatment period (baseline) and at 4 weeks and 10 weeks after initiation of the study, in order to determine fasting glucose (See Example 5B). Cholesterol and triglyceride levels were determined from blood draws taken at the beginning of the treatment (baseline) and at ten weeks. (See Example 5C).

[11] = system: Caco-2 cells
Protocol: as §6, §7, §8

[12] = low and high doses (25 and 90 mg/kg/day), 10 weeks

Sequence of Porcine group 1 B phospholipase A2 (pps PLA2) (P00592 23-146): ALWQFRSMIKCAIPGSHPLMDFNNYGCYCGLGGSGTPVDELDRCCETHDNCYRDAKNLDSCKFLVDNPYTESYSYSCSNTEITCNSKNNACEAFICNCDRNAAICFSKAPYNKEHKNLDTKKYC

With “(3-Aminooxalyl-1-benzyl-2-methyl-1H-indol-4-yloxy)-phenyl-acetic acid [ILY-IV-32]” the “ILYPSA % inhibition at 15 μM pps PLA2” value ([1]; 15 μM compound) was 38.5%, the “ILYPSA % inhibition at 15 μM mps PLA2” value ([2]; 15 μM compound) was 47.49% and the “ILYPSA % inhibition at 15 μM hps PLA2” value ([3]; 15 μM compound) was 41.73%.

With `Cc1c(C(=O)C(N)=O)c2c(OCC(=O)O)cccc2n1CCCCCCCCSCCCCCCCCSCCCCCCCCn1c(C)c(C(=O)C(N)=O)c2c(OCC(=O)O)cccc21` [ILY-v-24, 2,2′-(1,1′-(8,8′-(Octane-1,8-diylbis(sulfanediyl))bis(octane-8,1-diyl))bis(3-(2-amino-2-oxoacetyl)-2-methyl-1H-indole-4,1-diyl))bis(oxy)diacetic acid] the bioavailability [4] was 4-8%.

In the case of “2-(3-Aminooxalyl-1-{12-[3-aminooxalyl-4-(1-carboxy-2-methyl-propoxy)-2-methyl-indol-1-yl]-dodecyl}-2-methyl-1H-indol-4-yloxy)-3-methyl-butyric acid [ILY-v-44]”, the IC50 ([1]; read-out: ILYPSA IC50 (μM) pps PLA2, PPyrPM vesicles, 37° C.) is reported as 0.05 µM, the IC50 ([2]; PPyrPM vesicles, 37° C., read-out: ILYPSA IC50 (μM) mps PLA2) is reported as 0.48 µM and the IC50 ([3]; PPyrPM vesicles, 37° C., read-out: ILYPSA IC50 (μM) hps PLA2) is reported as 0.28 µM.

In the case of `Cc1c(C(=O)C(N)=O)c2c(OCC(=O)O)cccc2n1Cc1ccccc1-c1ccccc1` [ILY-4001, 2-(3-(2-amino-2-oxoacetyl)-1-(biphenyl-2-ylmethyl)-2-methyl-1H-indol-4-yloxy)acetic acid], the “stability at low pH” value [5] is given as “stable at low pH”, the IC50 [6] is given as ~200 nM and the IC50 [7] is given as ~150 nM. For the same compound, the “apparent permeability (cm/s)” value [8] was “around 1.66×10^−7 cm/s”, the “level of non-absorption from the GI tract into systemic circulation” value [9] was ~72% and the body weight gain ([10]; 25 mg/kg/d and 90 mg/kg/d in diet, week 4 and week 10, vs wild-type control group) was “significantly reduced body weight gains”. For the same compound, the “plasma levels of cholesterol” value [10, 12] was “substantially reduced”, the “plasma levels of triglycerides” value [10, 12] was “substantially reduced” and the fasting glucose levels ([10]; week four) was “moderately beneficial effect”. For the same compound, the fasting glucose levels ([10]; week ten) was “a beneficial effect was not observed”.

For Lucifer Yellow, the “apparent permeability (cm/s)” value [11] was “around 2.82×10^−7+/−0.37×10^−7 cm/s”.
